Results reported in PubChem BioAssay (NCI).
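Where inhibition never reached the appropriate level, the endpoint shown equals the highest concentration tested. Otherwise, values were interpolated linearly from a five-concentration, 48-hour dose response in 96-well plates. GI50: concentration for 50% inhibition of growth. TGI marks complete inhibition of growth.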

How the values were obtained:
Experiment in all cases: NCI anticancer screen, dose series, 48 h
[1] = system: A498 renal
[2] = system: KM12 colon
[3] = system: NCI-H460 lung
[4] = system: MALME-3M melanoma
[5] = system: UACC-62 melanoma
[6] = system: EKVX NSCLC
[7] = system: T-47D breast
[8] = system: OVCAR-3 ovarian
[9] = system: M14 melanoma
[10] = system: SF-295 CNS
[11] = system: RPMI-8226 leukemia
[12] = system: PC-3 prostate
[13] = system: SR leukemia
[14] = system: ACHN renal
[15] = system: SN12C renal
[16] = system: OVCAR-4 ovarian
[17] = system: TK-10 renal
[18] = system: HOP-62 NSCLC
[19] = system: RXF 393 renal
[20] = system: MOLT-4 leukemia
[21] = system: OVCAR-8 ovarian
[22] = system: SNB-75 CNS
[23] = system: BT-549 breast
[24] = system: HS 578T breast
[25] = system: SNB-19 CNS
[26] = system: SF-539 CNS
[27] = system: HCT-15 colon
[28] = system: CCRF-CEM leukemia
[29] = system: K-562 leukemia
[30] = system: HL-60(TB) leukemia
[31] = system: HCC-2998 colon
[32] = system: NCI-H226 lung
[33] = system: U251 CNS
[34] = system: HCT-116 colon
[35] = system: DU-145 prostate
[36] = system: MCF7 breast
[37] = system: 786-0 renal
[38] = system: SK-OV-3 ovarian
[39] = system: LOX IMVI melanoma
[40] = system: UACC-257 melanoma
[41] = system: MDA-MB-231 breast
[42] = system: COLO 205 colon
[43] = system: SK-MEL-5 melanoma
[44] = system: SK-MEL-28 melanoma
[45] = system: NCI-H23 lung
[46] = system: NCI/ADR-RES ovarian
[47] = system: SF-268 CNS
[48] = system: CAKI-1 renal
[49] = system: OVCAR-5 ovarian
[50] = system: A549 NSCLC
[51] = system: HOP-92 NSCLC
[52] = system: SW-620 colon
[53] = system: MDA-MB-435
[54] = system: HT29 colon

## O=C(Nc1cc(Cl)ccc1O)c1ccccc1Nc1ccnc(C(F)(F)F)c1
[1]
  GI50: 2.25 µM
  TGI: 6.4 µM
[2]
  GI50: 2.74 µM
  TGI: 8.13 µM
[3]
  GI50: 2.99 µM
  TGI: 9.92 µM
[4]
  GI50: 2.2 µM
  TGI: 7.39 µM
[5]
  GI50: 2.51 µM
  TGI: 10 µM
[6]
  GI50: 2.92 µM
  TGI: 10.4 µM
[7]
  GI50: 2.47 µM
  TGI: 8.5 µM
[8]
  GI50: 1.7 µM
  TGI: 4.8 µM
[9]
  GI50: 2.62 µM
  TGI: 8.71 µM
[10]
  GI50: 2.5 µM
  TGI: 6.78 µM
[11]
  GI50: 1.94 µM
  TGI: 7.43 µM
[12]
  GI50: 2.84 µM
  TGI: > 100 µM
[13]
  GI50: 2.83 µM
  TGI: 11.6 µM
[14]
  GI50: 3.35 µM
  TGI: > 100 µM
[15]
  GI50: 2.84 µM
  TGI: 10.7 µM
[16]
  GI50: 2.29 µM
  TGI: 13.2 µM
[17]
  GI50: 4.72 µM
  TGI: 16.8 µM
[18]
  GI50: 2.16 µM
  TGI: 5.21 µM
[19]
  GI50: 2.77 µM
  TGI: 10.6 µM
[20]
  GI50: 2.52 µM
  TGI: 6.94 µM
[21]
  GI50: 3.43 µM
  TGI: 16.3 µM
[22]
  GI50: 2.17 µM
  TGI: 6.55 µM
[23]
  GI50: 2.46 µM
  TGI: 7.95 µM
[24]
  GI50: 2.42 µM
  TGI: 8.54 µM
[25]
  GI50: 2.88 µM
  TGI: 10.3 µM
[26]
  GI50: 2.7 µM
  TGI: 9.16 µM
[27]
  GI50: 3.55 µM
  TGI: > 100 µM
[28]
  GI50: 3.12 µM
  TGI: 9.63 µM
[29]
  GI50: 3.65 µM
  TGI: > 100 µM
[30]
  GI50: 1.46 µM
  TGI: 4.36 µM
[31]
  GI50: 3 µM
  TGI: 7.41 µM
[32]
  GI50: 2.11 µM
  TGI: 9.17 µM
[33]
  GI50: 4.91 µM
  TGI: > 100 µM
[34]
  GI50: 2.2 µM
  TGI: 5.63 µM
[35]
  GI50: 3.69 µM
  TGI: 14.1 µM
[36]
  GI50: 2.75 µM
  TGI: 11.6 µM
[37]
  GI50: 3.28 µM
  TGI: 8.8 µM
[38]
  GI50: 2.21 µM
  TGI: 6.23 µM
[39]
  GI50: 3.2 µM
  TGI: 22.7 µM
[40]
  GI50: 2.85 µM
  TGI: 8.5 µM
[41]
  GI50: 2.12 µM
  TGI: 5.19 µM
[42]
  GI50: 2.38 µM
  TGI: 5.4 µM
[43]
  GI50: 2.1 µM
  TGI: 4.27 µM
[44]
  GI50: 3 µM
  TGI: 12.2 µM
[45]
  GI50: 2.63 µM
  TGI: 9.19 µM
[46]
  GI50: 3.06 µM
  TGI: 9.29 µM
[47]
  GI50: 3.13 µM
  TGI: 13.2 µM
[48]
  GI50: 2.24 µM
  TGI: 7.34 µM
[49]
  GI50: 5.6 µM
  TGI: 23.3 µM
[50]
  GI50: 3.38 µM
  TGI: 13.1 µM
[51]
  GI50: 2.58 µM
  TGI: 8.72 µM
[52]
  GI50: 3.15 µM
  TGI: 11.7 µM
[53]
  GI50: 3.33 µM
  TGI: 11.3 µM
[54]
  GI50: 3.27 µM
  TGI: 11.5 µM
